Reference: a melting point compilation (Tetko et al.; mined from patent text by program, amines drawn as free bases though some values may be those of a salt)

SMILES | melting point [°C]
CN1Cc2c(Cl)ccc3scc(c23)S1(=O)=O | 196
CCOC(=O)C(=CNc1ccnn1Cc1ccncc1)C(=O)OCC | 95 to 97
O=C1CC(C(F)(F)F)CC(=O)N1c1cc(C2OCCCO2)c(Cl)cc1F | 158 to 161
COc1ccc([N+](=O)[O-])nc1C | 96 to 98
C=CCNC(=O)NNC(=O)c1cccnc1 | 165 to 167
CC(=O)Oc1ccccc1CC1CNC(=O)O1 (stereo not given) | 98 to 99
C=CCN(CC=C)Cc1noc(-c2ncn3c2[C@@H]2CCN2C(=O)c2c-3ccc(F)c2Cl)n1 | 127
CCOP(=O)(CNc1ccc(Cl)cc1[N+](=O)[O-])OCC | 94 to 95
CN(CCN1C(=O)c2ccccc2C1=O)C(c1ccccc1)c1ccccc1 | 130 to 131
Cc1oc(C)c(C(=O)OC2CC(C)(C)N(C)C(C)(C)C2)c1C | 55 to 56
CCOC(NC(=O)c1snc(Cl)c1Cl)C(F)(F)F (stereo not given) | 99 to 101
CCC1=C(c2ccc(F)c(F)c2)C(=NO)CC1 | 136 to 137
CCCCCCCCCCCCCCCCCCN(CCCCCCCCCCCCCCCCCC)CCCNC=O | 42 to 46
CON1C(C)(C)CC(OC(=O)c2ccc(C(=O)OC3CC(C)(C)N(OC)C(C)(C)C3)cc2)CC1(C)C | 179 to 181
N#Cc1cc(C(Cl)(Cl)Cl)ccc1Cl | 66 to 68
Cc1cc2c(Cl)cc(F)c(-n3c(=O)cc(C(F)(F)F)n(C)c3=O)c2o1 | 196 to 197
COc1ccc2ncc(Cl)c(OC[C@@H]3CC[C@@H](NC(=O)OC(C)(C)C)CO3)c2c1 | 173
CCCN(Cc1ccc(-c2ccccc2C2=NC(C)(C)CO2)cc1)C(c1ccccc1)(c1ccccc1)c1ccccc1 | 151 to 153
O=C(CCCC=CCC1C(O)CC(O)C1C=CC(O)CCc1ccccc1)ON1C(=O)CCC1=O (stereo not given) | 93.5 to 103
COc1cccc(Cc2cnc(N[N+](=O)[O-])[nH]c2=O)c1 | 178 to 179
CCCCCCCCCCCCCCCCCCOc1cc(N)cc(C(=O)N(CC(=O)O)CC(=O)O)c1 | 108 to 120
COc1cc2c(cc1OC)-c1cc(=O)n(C(C)C)c(=O)n1CC2 | 190 to 192

SMILES | melting point [°C]
Oc1ccc(Oc2cccc(-c3c(Cc4ccccc4)cnc4c(C(F)(F)F)cccc34)c2)cc1 | 55 to 60
CC1(C)OC(=O)c2c(cccc2-c2ccccn2)O1 | 142
CCCCCCCCCCCCCCCCOC(=O)NCCN1CCOCC1 | 65
COc1ccc(CN2CC=C(c3cc4ccccc4s3)CC2)cc1 | 158 to 160
CCN1CCN(Cc2nc3sc(C)c(C)c3c(=O)n2-c2ccccc2Cl)CC1 | 126 to 129
CC1(CCCN)NC(=O)NC1=O (stereo not given) | 183 to 185
CCOC(=O)c1c(SCOC)nc2c(F)c(F)c(F)cc2c1O | 91 to 94
O=C(CCC(=O)N1CCC(c2ccc(Cl)cc2)CC1)c1ccc2c(c1)CCN(CC1CCCO1)CC2 (stereo not given) | 123 to 125
CCC(=O)C(Cc1c(F)cccc1F)C(=O)CC | 55 to 56
CC1(C)NC(=O)N(CSc2cc(C(C)(C)C)c(O)c(C(C)(C)C)c2)C1=O | 160 to 162
CC(=CN1CCC(CCCC2CCN(C=C(C)c3ccccc3)CC2)CC1)c1ccccc1 | 120
O=C(O)c1ccc(F)cc1NC(=O)C(F)(F)F | 166 to 168
N#CNC=Nc1ccc(-c2ccccn2)cc1 | 150 to 151
COc1ccc(/C=C(\C#N)c2ccc(Cl)cc2Cl)cc1OC1CCCC1 | 105 to 107
Cc1[nH]c(=O)[nH]c(=O)c1N1CCN(Cc2ccccc2)CC1 | 263
CC(Nn1cncn1)(c1ccc(F)cc1)c1ccc(F)cc1 | 114 to 119
CCOC(=O)/C=C/c1cc(OCc2ccc(OCc3nc(-c4ccccc4)oc3C)c(OC)c2)nn1-c1ccccc1 | 121 to 122
O=C(O)CCCOc1cccc(CCCCCCOc2cc(-c3ccsc3)cc(-c3ccc4c(c3)OCO4)c2)c1CCC(=O)O | 110 to 112
CCOC(=O)c1cc(OCC)c(C(=O)OCC)c(OCC)c1 | 142 to 144
Cc1c(N2CCN(C(C)C)CC2)nn2c(-c3ccnnc3)c(-c3ccc(F)cc3)nc2c1C | 222 to 224
Cc1cc2c(cc1Cl)N(C(=O)CN1CCN(C)CC1)c1ccccc1N(C)S2(=O)=O | 156 to 158
O=C1NC(=O)N(Cc2ccccc2)C(=O)C1Cc1ccccc1 (stereo not given) | 107 to 109

Next, values leading:

melting point [°C] | SMILES
148 | Cc1cc(C#N)cc(C(=O)Nc2cccc(Cl)c2)n1
86 | COC(=O)c1ccccc1NCc1ccncc1
175 to 178 | CC(C)On1c(C2CCCCC2)nc2c(N)nc3ccccc3c21
92 to 94 | CC(C)(C)OC(=O)[C@H](CC(=O)c1ccc2oc3ccccc3c2c1)NC(=O)C(F)(F)F
246 to 248 | c1ccc(-c2ccc(-c3csc(Nc4cc5ccccc5cn4)n3)s2)nc1
194 to 195 | ClCc1coc(-c2ccc3oc(-c4ccccc4)nc3c2)n1
130 to 134 | O=C(O)c1ccc(Cc2ccccc2)[nH]1
89 to 90 | CC(C)(C)c1cc(C(=O)c2ccsc2)cc2c1OCC2(C)C
150 to 153 | C[C@H](CNC(=O)c1c(Cl)ccc2nc(N3CCC(C(=O)O)CC3)ccc12)c1ccccc1
107 to 108 | COC(=O)c1ccc(NCc2ccc(F)cc2)cn1
74 to 76 | COC(=O)Cc1ccc2c(c1)C(=O)c1ccccc1CO2
207 to 209 | O=C(Nc1ccc(-n2nc(C(F)(F)F)cc2C(F)(F)F)cc1)c1ccncc1[N+](=O)[O-]
49 to 50 | COCCCNCC(=O)Nc1ccc(C(=O)OC)cc1
189 to 191 | O=C(NCC(=O)N1c2ccccc2N(Cc2ccccc2)C(=O)[C@H]2CCC[C@H]21)c1cccnc1 (relative stereo)
167 to 168 | COc1ccc(-c2ccc(C(=O)NN)cc2)cc1OC1CCCC1
171 to 172 | O=c1c2cc(F)c(N3CCCC3)nc2n(Cc2ccccc2)c(=O)n1OCc1ccccc1
190 to 192 | O=S(=O)(Nc1ccc2c(OCc3nc4ccccc4s3)cccc2c1)C(F)(F)F
204 to 206 | CN(C)C1CCN(c2cccc(-c3cnc4[nH]cc(C(=O)C(C)(C)C)c4n3)c2)C1 (stereo not given)
93 to 94 | COc1ccc(C(=O)OC2C=C(C)C(=O)CC(C)(C)C2OC(C)=O)cc1 (stereo not given)

melting point [°C] | SMILES
151 to 153 | O=C1NC(=O)C(Cc2ccc(OCc3cscn3)cc2)S1 (stereo not given)
168 | O=C(c1ccc(F)c(F)c1)N1CCCC(c2noc(-c3ccc[nH]3)n2)C1 (stereo not given)
> 300 | N#Cc1cccc(-c2csc(N=C(N)N)n2)n1
288 to 290 | Cc1nc2cc(NC(=O)c3cc4cc(-c5ccccc5)ncc4n3Cc3cccc(F)c3)ccc2n1C
64 to 67 | CCCC(=O)NCCC1=CCc2ccc(OC)cc21
104 to 105 | COC(=O)c1cc(OC)c(OCc2ccccc2)cc1[N+](=O)[O-]
79 to 80 | COc1ccc(CN([C@@H](CO)c2ccccc2)S(=O)(=O)c2ccc(Cl)cc2)cc1C(=O)O
201 to 202 | CCOC(=O)C1=C(C)Nc2ncnc(OC(C)C)c2C1c1ccccc1 (stereo not given)
174 to 178 | Nc1cc(Cl)cc(Cl)c1C(=O)NCc1ccc(Cl)cc1
170 to 171 | COC(=S)C(=Cc1ccccc1)N1CC(N2C(=O)c3ccccc3C2=O)C1=O (stereo not given)
121 to 124 | CCOc1cc2ncc(C#N)c(Nc3ccc4c(c3)NCC4)c2cc1OCC
180 to 182 | COc1cccc(N2C(CO)=Cc3cc(S(N)(=O)=O)sc3S2(=O)=O)c1
210 to 214 | COc1cncnc1N1CCN(CCCc2c[nH]c3ccc(CNS(C)(=O)=O)cc23)CC1C (stereo not given)
66 to 67.5 | COC(=O)C(Sc1ccc(Cl)cc1)c1ccc(Oc2ccccc2)cc1 (stereo not given)
166 to 168 | CN(C)c1ncc(-c2cccc(Nc3ccc(-n4cccc4)cc3[N+](=O)[O-])c2)cn1
132 to 133 | COc1ccc(S(=O)(=O)Nc2nc(-c3cccc4ccccc34)cs2)cc1OC
152 to 155 | COC(=O)[C@H](Cc1ccccc1)NC(=O)c1cnccn1
83 to 85 | CCOC(=O)C(C)Oc1ncn(-c2cccc(Br)c2)n1 (stereo not given)
215 to 216 | COc1ccc(S(=O)(=O)NC(=O)c2ccc(C(=O)OC(C)C)nc2)cc1

melting point [°C] | SMILES
107 to 108 | COC(=N)c1ccc(-c2ccccc2[N+](=O)[O-])o1
272 to 274 | N=C(NO)c1ccc(-c2ccc(-c3ccc(C(=N)NO)cn3)o2)nc1
196 to 197 | CC1(C)OC(=S)Nc2ccc(-c3ccc(F)c(Cl)c3)cc21
90 to 92 | CC(Oc1ccc(Oc2ccc(C(F)(F)F)cc2Cl)cc1)C(=O)O (stereo not given)
102 to 108 | CCOC(=O)/C(=N\O)N1N=C(N)C(Cc2ccccc2)C1=O (stereo not given)
190 to 192 | Cc1ccc(-n2nc(Sc3ccc(Cl)cc3)c(C)c(C#N)c2=O)cc1
254 to 255 | Nc1nc(Nc2ccc(S(N)(=O)=O)cc2)sc1C(=O)c1sc(Br)cc1Br
270 to 273 | CNc1c(F)cc2c(=O)c(C(=O)O)cn(-c3nc(N)c(F)cc3F)c2c1F
70.2 to 73 | O=[N+]([O-])c1cccc(Cn2c(-c3ccc4c(c3)OCO4)nc3ccccc32)c1
80 to 82 | COc1cc(Br)cc2nc(SCc3ccccc3)nn12
225 | O=c1ccc2c([nH]1)C(Nc1ccccc1)CCC2 (stereo not given)
188 to 198 | COc1ccc(N2Cc3cnc(Nc4ccccc4)nc3N([C@@H](C)CO)C2=O)c(F)c1
230 to 233 | CC(=O)Nc1sc(-c2ccc(F)cc2)cc1C(N)=O
152 to 155 | Oc1ccc2sc3ccccc3c2c1
180 to 182 | Cc1cccc(CCOc2ccc(C=C3SC(=O)NC3=O)cc2)n1
190 to 195 | CC1=CN2C(=NC(c3ccc(C)cc3)C2C(=O)C(=O)O)C=C1 (stereo not given)
122 | C=CS(=O)(=O)c1ccc(NC(C)=O)cc1
230 | Cc1cc(-c2ccc(Cl)c(Cl)c2)nc(-n2cnc(-c3ncc(S(N)(=O)=O)s3)c2)n1
